From ChEMBL document CHEMBL2406912, “In vivo antimalarial activity of novel 2-hydroxy-3-anilino-1,4-naphthoquinones obtained by epoxide ring-opening reaction” (2013)

Columns and labels:
Type in all cases: functional
Plasmodium berghei [1] = experiment: Antimalarial activity against Plasmodium berghei NK65 infected in Swiss albino mouse assessed as inhibition of parasitemia at 100 mg/kg, po qd for 4 days measured on day 5 of after infection relative to control
Plasmodium berghei [2] = experiment: Antimalarial activity against Plasmodium berghei NK65 infected in Swiss albino mouse assessed as inhibition of parasitemia at 100 mg/kg, po qd for 4 days measured on day 7 of after infection relative to control
Plasmodium berghei [3] = experiment: Antimalarial activity against Plasmodium berghei NK65 infected in Swiss albino mouse assessed as increase of survival days of host at 100 mg/kg, po qd for 4 days (reference value: 20 +/- 2.7 days)
Plasmodium berghei [4] = experiment: Antimalarial activity against Plasmodium berghei NK65 infected in Swiss albino mouse assessed as inhibition of parasitemia at 10 mg/kg, po qd for 4 days measured on day 5 to 7 of after infection relative to control
Plasmodium berghei [5] = experiment: Antimalarial activity against Plasmodium berghei NK65 infected in Swiss albino mouse assessed as increase of survival days of host at 10 mg/kg, po qd for 4 days (reference value: 20 +/- 2.7 days)

Compound	inhibition in vivo at 100 mg/kg (Plasmodium berghei [1]) [%]	inhibition in vivo at 100 mg/kg (Plasmodium berghei [2]) [%]	MSD (Plasmodium berghei [3]) [days]	inhibition in vivo at 10 mg/kg (Plasmodium berghei [4]) [%]	MSD (Plasmodium berghei [5]) [days]
O=C1C(O)=C(Nc2ccccc2)C(=O)c2ccccc21	53.3	18.5	32.5	–	–
COc1ccc(NC2=C(O)C(=O)c3ccccc3C2=O)cc1	66.6	25.9	26	–	–
Cc1cccc(C)c1NC1=C(O)C(=O)c2ccccc2C1=O	0	0	26.7	–	–
CCN(CC)CCCC(C)Nc1ccnc2cc(Cl)ccc12 (stereo unspecified) [CHLOROQUINE]	–	–	–	98	>60
